These results are taken from patent US8728506B2, “Durable pest repellent and pest repellent resin composition” (Toagosei Co., Ltd., priority 2009, dated 2014).

Data set [1] can be described thus: Heat resistance by thermal analysis (TG/DTA in air). The class given is physicochemical. The following applies: temperature at which amount of supported chemical component is reduced by 1/3, 30-600° C., 20° C./min. As to the method: Furthermore, it was confirmed by thermal analysis that the supported N,N-diethyl-m-toluamide acquired heat resistance. The thermal analysis was carried out using a Model TG/DTA220 manufactured by Seiko Instruments under an air atmosphere, the measurement temperature was 30° C. to 600° C., and the rate of temperature increase was 20° C./min. Since the measurement is carried out in air, the overall heat resistance in air including vaporization and oxidative decomposition can be evaluated, and N,N-diethyl-m-toluamide that only adheres to the surface of a porous substance having a large specific surface area is subjected to oxidative decomposition at relatively low temperature and the weight decreases, whereas it is expected that N,N-diethyl-m-toluamide that is packed between layers of the inorganic layered compound without gaps is resistant to vaporization and oxidative decomposition and the weight will be maintained up to a higher temperature. […]

The nature of data set [2]: Evaluation of resin moldability (injection molding in polyethylene resin). The class given is physicochemical. Conditions: repellent chemical 0.3 %, molding 250° C., residence 5 min. From the text: The durable pest repellents prepared in Examples 1-1 to 1-10, and the comparative pest repellents prepared in Comparative Examples 1-1 to 1-14 and Comparative Reference Example 1-1 were mixed with a polyethylene resin (PE-NUC-8350, Nippon Unicar Co., Ltd.). For example, in the durable pest repellent of Example 1-1, since the amount of pest repellent chemical supported was 3 mass %, when the amount of repellent added in a resin composition shown in Table 2 was 5%, the amount of pest repellent chemical added was calculated as 0.15 mass %, and when the amount of repellent added in the resin composition was 10%, the amount of pest repellent chemical added was calculated as 0.3 mass %.
Resin compositions were produced by adjusting the amount of each repellent added to the resin composition so that the amount of pest repellent chemical added in the resin composition was 0.3 mass %, 0.15%, and 0.6%, they were injection-molded into flat plates, and evaluation of whether kneading into the resin was possible was carried out. Molding was carried out using a Model M-50A(II)-DM manufactured by Meiki Co., Ltd. at a molding temperature of 250° C., thus giving 10 cm square plates having a thickness of 2 mm. Furthermore, the residence time was 5 minutes, and checks as to whether or not there was foaming, a strange smell, or discoloration during molding were carried out. […]
The durable pest repellents prepared in Examples 2-1 to 2-12, the comparative pest repellents prepared in Comparative Examples 2-1 to 2-4, and Comparative Reference Example 2-1 were mixed with a polyethylene resin (PE-NUC-8350, Nippon Unicar Co., Ltd.). For example, in the durable pest repellent of Example 2-1, since the amount of pest repellent chemical supported was 5 mass %, when the amount of repellent added in a resin composition shown in Table 4 was 3%, the amount of pest repellent chemical added was calculated as 0.15 mass %, and when the amount of repellent added in the resin composition was […], the amount of pest repellent chemical added was calculated as 0.3 mass %. […]

For data set [3], the system named is house dust mite. In words: Evaluation of repellency, anti-mite intrusion-prevention method JIS L 1920. Format: in vivo. Conditions: polyethylene plate, repellent chemical 0.3 %. On the procedure:
(§1) Plates molded after adding the pest repellents prepared in Examples 1-1 to 1-10 and Comparative Examples 1-1 to 1-14 and Comparative Reference Example 1-1 to a polyethylene resin (PE-NUC-8350 manufactured by Nippon Unicar Co., Ltd.) so that the pest repellent chemical was 0.3 mass % of the entire resin composition were cut into circles having a diameter of a little under 4 cm and subjected to a test for anti-mite properties. The test was carried by an intrusion-prevention method in accordance with JIS L 1920 ‘Testing methods for efficacy against house dust mite of textiles’. Plates molded after adding the durable pest repellents prepared in Examples 2-1 to 2-4, comparative pest repellents prepared in Comparative Examples 2-1 to 2-4, and Comparative Reference Example 2-1 to a polyethylene resin (PE-NUC-8350 manufactured by Nippon Unicar Co., Ltd.) so that the pest repellent chemical was 0.3 mass % of the entire resin composition were cut into circles having a diameter of a little under 4 cm and subjected to a test for anti-mite properties. The test was carried by an intrusion-prevention method in accordance with JIS L 1920 ‘Testing methods for efficacy against house dust mite of textiles’.

Data set [4] relates to house dust mite. Briefly: Evaluation of persistence of repellence (after heating), JIS L 1920. Format: in vivo. The following applies: polyethylene plate, repellent chemical 0.3 %; held at 81° C. for 48 hours. On the procedure: as §1, with “pest repellent component was 0.3” for “pest repellent chemical was 0.3”, “mass % were held in a dryer at 81° C. for 48 hours. They were cut” for “mass % of the entire resin composition were cut”, “2-1 to 2-12, the comparative pest” for “2-1 to 2-4, comparative pest”

`CCN(CC)C(=O)c1cccc(C)c1` [Comp. Ref. Ex. 1-1, N,N-diethyl-m-toluamide] showed a Heat resistance in data set [1] of 180 °C. In addition, in data set [2], the “Molding properties Bad smell” value is on record as “Some”, the “Molding properties Coloration” value is listed as “None” and the “Molding properties Foaming” value is “Some”. For the same compound, the Initial percentage repellence in data set [3] turned out to be 21%. For the same compound, the Post-heating percentage repellence in data set [4] was 0%.
